Results taken from patent US6943179B2, “Biurethane derivatives” (Merck Patent GmbH, priority 2001, dated 2005).

Legend:
FXa = FXa (Homo sapiens, UniProt P00742); assay: Factor Xa inhibition (FXa-IC50); format: biochemical
From the text: The inhibition of factor Xa by the compounds according to the invention and the measurement of the anticoagulant and antithrombotic activity can be determined by conventional in-vitro or in-vivo methods. A suitable method is described, for example, by J. Hauptmann et al. in Thrombosis and Haemostasis 1990, 63, 220-223.
The inhibition of factor Xa can be measured, for example, by the method of T. Hara et al. in Thromb. Haemostas. 1994, 71, 314-319.

TF/FVIIa = biological target: T1, TF/FVIIa (Homo sapiens, UniProt P08709); assay: TF/FVIIa inhibition (TF/FVIIa-IC50); format: biochemical
T1 construct: Coagulation factor VIIa initiates the extrinsic part of the coagulation cascade
T1 sequence (P08709 213-466 limits assumed): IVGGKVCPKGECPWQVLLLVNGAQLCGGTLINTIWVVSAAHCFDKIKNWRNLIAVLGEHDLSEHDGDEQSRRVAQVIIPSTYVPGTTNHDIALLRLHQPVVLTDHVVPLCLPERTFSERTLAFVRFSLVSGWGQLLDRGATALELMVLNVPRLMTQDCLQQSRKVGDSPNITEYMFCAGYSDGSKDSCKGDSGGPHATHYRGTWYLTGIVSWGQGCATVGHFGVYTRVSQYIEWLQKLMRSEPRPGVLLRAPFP
T1 sequence (P08709 61-212 limits assumed): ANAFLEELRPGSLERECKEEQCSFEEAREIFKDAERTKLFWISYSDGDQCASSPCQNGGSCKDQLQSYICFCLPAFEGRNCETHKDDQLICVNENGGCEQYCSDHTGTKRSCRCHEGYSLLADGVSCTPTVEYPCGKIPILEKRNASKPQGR
T1 sequence (P13726 33-295 partner): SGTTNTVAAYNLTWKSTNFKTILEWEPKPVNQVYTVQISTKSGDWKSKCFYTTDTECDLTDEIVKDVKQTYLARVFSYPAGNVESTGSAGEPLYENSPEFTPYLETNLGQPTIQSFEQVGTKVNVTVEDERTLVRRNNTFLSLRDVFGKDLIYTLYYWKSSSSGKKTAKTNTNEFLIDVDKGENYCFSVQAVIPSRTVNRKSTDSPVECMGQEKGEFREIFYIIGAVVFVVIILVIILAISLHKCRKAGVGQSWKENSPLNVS
From the text: The inhibition of factor VIIa by the compounds according to the invention and the measurement of the anticoagulant and antithrombotic activity can be determined by conventional in-vitro or in-vivo methods. A conventional method for the measurement of the inhibition of factor VIIa is described, for example, by H. F. Ronning et al. in Thrombosis Research 1996, 84, 73-81.

Sequence of FXa (P00742 235-488 limits assumed): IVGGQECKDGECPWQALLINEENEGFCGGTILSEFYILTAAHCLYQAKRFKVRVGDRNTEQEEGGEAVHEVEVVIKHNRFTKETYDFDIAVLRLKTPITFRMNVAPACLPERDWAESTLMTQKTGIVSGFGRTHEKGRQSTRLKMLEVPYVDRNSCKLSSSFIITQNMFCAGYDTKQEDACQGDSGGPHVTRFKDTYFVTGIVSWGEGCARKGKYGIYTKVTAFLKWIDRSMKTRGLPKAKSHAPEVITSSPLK
Sequence of FXa (P00742 41-179 limits assumed): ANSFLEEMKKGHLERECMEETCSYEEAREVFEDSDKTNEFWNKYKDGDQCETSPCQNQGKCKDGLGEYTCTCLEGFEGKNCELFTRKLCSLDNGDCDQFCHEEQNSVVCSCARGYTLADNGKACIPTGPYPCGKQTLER

| IC50 (FXa) [nM] | melting point | IC50 (TF/FVIIa) [nM] | SMILES |
| --- | --- | --- | --- |
| 390 | > 250 °C | 190 | CS(=O)(=O)c1ccccc1-c1ccc(NC(=O)N(NC(=O)Nc2ccc(Cl)cc2)c2ccccc2)cc1 [compound 3] |
| 180 | 165 to 170 °C (dec.) | 91 | O=C(Nc1ccc(Cl)cc1)NN(C(=O)Nc1ccc(N2CCCCC2=O)cc1)c1ccccc1 [No. 1, N-(4-Chlorophenylaminocarbonyl)-N′-[4-(2-oxo-1-piperidyl)phenylaminocarbonyl]-N′-phenylhydrazine] |
| 670 | 170 to 175 °C | 340 | O=C(Nc1ccc(Cl)cc1)NN(C(=O)Nc1ccc(N2CCCCC2=O)cc1)c1ccc(Cl)cc1 [compound 2] |
